According to patent US6676925B1, “Sigma-2 receptors as biomarkers of tumor cell proliferation” (priority 1996, dated 2004):

How the values were obtained:
Sigma-1 binding sites = Sigma-1 binding sites (Cavia porcellus, UniProt Q60492); assay: σ1 binding assay, [^3H](+)-pentazocine in guinea pig brain membranes
Protocol: Test compounds were dissolved in ethanol (7 concentrations ranging from 1-1000 nM) then diluted in buffer for a total incubation volume of 0.5 mL. Assays were terminated by the addition of ice-cold 10 mM Tris HCl, pH 8.0 followed by rapid filtration through Whatman GF/B glass fiber filters (presoaked in 0.5% polyethylenimine) using a Brandel cell harvester (Gaithersburg, Md.). Filters were washed twice with 5 ML of ice cold buffer. Nonspecific binding was determined in the presence of 10 μM (+)-pentazocine. Liquid scintillation counting was carried out in EcoLite (+) (ICN Radiochemicals; Costa Mesa, Calif.) using a Beckman LS 6000IC spectrometer with a counting efficiency of 50%. Typical counts were 70 dpm/μg protein for total binding, 6 dpm/μg protein for nonspecific binding, and 64 dpm/μg protein for specific binding.
(§1) The IC50 values at sigma sites were determined in triplicate from non-linear regression of binding data as analyzed by JMP (SAS Institute; Cary, N.C.), using 5-10 concentrations of each compound. Ki values were calculated using the Cheng-Prusoff equation and represent mean values ±SEM. All assays were done in triplicate unless otherwise noted.

Sigma-2 sites = biological target: T1, Sigma-2 sites (Rattus norvegicus, UniProt Q5U3Y7); assay: σ2 binding assay, [^3H]DTG in rat liver membranes in the presence of 100 nM (+)-pentazocine
T1 sequence (Q5U3Y7 1-176): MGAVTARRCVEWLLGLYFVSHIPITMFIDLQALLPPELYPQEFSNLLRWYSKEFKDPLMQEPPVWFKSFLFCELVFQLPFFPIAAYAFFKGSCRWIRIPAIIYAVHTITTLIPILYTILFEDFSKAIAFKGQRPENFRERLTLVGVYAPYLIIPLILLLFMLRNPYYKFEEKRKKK
Protocol: Assays were terminated by the addition of ice-cold 10 mM Tris-HCl, pH 8.0 followed by rapid filtration through Whatman GF/B glass fiber filters (presoaked in 0.5% polyethylenimine) using a Brandel cell harvester (Gaithersburg, Md.). Filters were then washed twice with 5 mL of ice cold buffer Nonspecific binding was determined in the presence of 5 μM DTG. Liquid scintillation counting was carried out in EcoLite(+) (ICN Radiochemicals; Costa Mesa, Calif.) using a Beckman LS 6000IC spectrometer with a counting efficiency of 50%. […] Typical counts for guinea pig brain were 16 dpm/μg protein for total binding, 2 dpm/μg protein for nonspecific binding, and 14 dpm/μg protein for specific binding.
as §1

Sigma-1 binding sites, sequence (Q60492 whole entry): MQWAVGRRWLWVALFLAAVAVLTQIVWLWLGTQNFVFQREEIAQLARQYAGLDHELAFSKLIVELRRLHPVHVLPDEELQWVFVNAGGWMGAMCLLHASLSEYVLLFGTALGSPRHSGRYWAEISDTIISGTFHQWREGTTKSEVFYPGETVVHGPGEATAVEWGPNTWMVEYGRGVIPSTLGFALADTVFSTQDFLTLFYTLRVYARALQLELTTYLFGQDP

SMILES | Ki (Sigma-1 binding sites) [nM] | Ki (Sigma-2 sites) [nM]
CN1[C@@H]2CC[C@H]1C[C@@H](OC(=O)Nc1ccc(Cl)c(Cl)c1)C2 [Compound 2, (3-endo)-8-Methyl-8-azabicyclo[3.2.1]octyl-3-N-(3′, 4′-dichlorophenyl)-carbamate] | > 1000 | 36.9
COc1ccc(Cl)cc1NC(=O)O[C@H]1C[C@H]2CC[C@@H](C1)N2C [Compound 3, (3-endo)-8-Methyl-8-azabicyclo[3.2.1]octyl-3-N-(2′-methoxy-5′-chloro-phenyl)-carbamate] | > 1000 | 156
O=C(Nc1ccc(Cl)c(Cl)c1)O[C@H]1C[C@H]2CCC[C@@H](C1)N2Cc1ccccc1 [Compound 4, (3-endo)-9-Benzyl-9-azabicyclo[3.3.1]nonanyl-3-N-(3′, 4′-dichlorophenyl)-carbamate] | 33.3 | 91.9
COc1ccc(OC)c(NC(=O)O[C@H]2C[C@H]3CCC[C@@H](C2)N3Cc2ccccc2)c1 [Compound 5, (3-endo)-9-Benzyl-9-azabicyclo[3.3.1]nonanyl-3-N-(2′, 5′-dimethoxyphenyl)-carbamate] | 329 | 28.2
COc1cc(OC)c(NC(=O)O[C@H]2C[C@H]3CCC[C@@H](C2)N3Cc2ccccc2)cc1Cl [Compound 6, (3-endo)-9-Benzyl-9-azabicyclo[3.3.1]nonanyl-3-N-(5′-chloro-2′, 4′-dimethoxyphenyl)carbamate] | 189 | 22.9
COc1ccc(Cl)cc1NC(=O)O[C@H]1C[C@H]2CCC[C@@H](C1)N2Cc1ccccc1 [Compound 7, (3-endo)-9-Benzyl-9-azabicyclo[3.3.1]nonanyl-3-N-(5′-chloro-2′-methoxyphenyl)carbamate] | > 1000 | 63.5
CN1[C@@H]2CCC[C@H]1C[C@@H](OC(=O)Nc1ccc(Cl)c(Cl)c1)C2 [Compound 8, (3-endo)-9-Methyl-9-azabicyclo[3.3.1]nonanyl-3-N-(3′, 4′-dichlorophenyl)-carbamate] | 595 | 50.3
COc1ccc(OC)c(NC(=O)O[C@H]2C[C@H]3CC[C@@H](C2)N3Cc2ccccc2)c1 [Compound 9, (3-endo)-8-Benzyl-8azabicyclo[3.2.1]octyl-3-N-(2′,5′-dimethoxyphenyl)-carbamate] | 72.4 | 22.1
O=C(Nc1ccc(Cl)c(Cl)c1)O[C@H]1C[C@H]2CC[C@@H](C1)N2Cc1ccccc1 [Compound 10, (3-endo)-8-Benzyl-8-azabicyclo[3.2.1]octyl-3-N(3′, 4′-dichlorophenyl)-carbamate] | 716 | 16.2
